Experimental data as given in patent US20070004660A1, “Synergistic Modulation of Flt3 Kinase Using Alkylquinolines and Alkylquinazolines” (priority 2005, published 2007).
pIC50: −log10 of the molar value.

Experiments:
[1] = target: T1, isolated kinase domain of the human FLT3 receptor (a.a. 571-993) (Homo sapiens, UniProt P36888); test: FLT3 fluorescence polarization kinase assay; format: biochemical; settings: 150 uM ATP; uncertainty ±10%
T1 construct: human FLT3 receptor (a.a. 571-993)
T1 sequence (P36888 571-993): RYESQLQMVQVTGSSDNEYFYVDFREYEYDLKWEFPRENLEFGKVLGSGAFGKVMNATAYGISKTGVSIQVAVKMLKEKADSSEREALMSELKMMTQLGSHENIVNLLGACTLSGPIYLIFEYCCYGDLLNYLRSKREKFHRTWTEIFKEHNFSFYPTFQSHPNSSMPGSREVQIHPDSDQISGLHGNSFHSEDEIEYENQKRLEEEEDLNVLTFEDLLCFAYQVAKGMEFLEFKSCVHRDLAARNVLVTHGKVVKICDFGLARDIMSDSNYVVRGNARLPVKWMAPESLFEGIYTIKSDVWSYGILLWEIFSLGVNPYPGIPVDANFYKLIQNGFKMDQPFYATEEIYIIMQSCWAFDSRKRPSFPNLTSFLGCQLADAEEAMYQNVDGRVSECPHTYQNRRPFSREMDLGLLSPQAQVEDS

MV4-11 cells = test: Inhibition of MV4-11 cell proliferation (CellTiterGlo, 72 h); format: cell-based; settings: Homo sapiens; 72 h growth inhibition; uncertainty ±20%

Row | pIC50 [1] | pIC50 (MV4-11 cells) | SMILES
1 | 8.52 | 7.74 | O=C1CN(c2ccc3c(C4CCN(C(=O)Nc5ccc(N6CCCC6)cc5)CC4)ncnc3c2)CCN1 [Compound 183, 4-[7-(3-Oxo-piperazin-1-yl)-quinazolin-4-yl]-piperidine-1-carboxylic acid (4-pyrrolidin-1-yl-phenyl)-amide]
2 | 6.89 | 6.73 | CS(=O)(=O)N1CC(Oc2ccc3c(C4CCN(C(=O)Nc5ccc(N6CCCC6)cc5)CC4)ncnc3c2)C1 [Example 171, 4-[7-(1-Methanesulfonyl-azetidin-3-yloxy)-quinazolin-4-yl]-piperidine-1-carboxylic acid (4-pyrrolidin-1-yl-phenyl)-amide]
3 | 7.60 | 6.79 | CCN1CCN(c2ccc3c(C4CCN(C(=O)Nc5ccc(N6CCOCC6)cc5)CC4)ncnc3c2)CC1 [Example 136, 4-[7-(4-Ethyl-piperazin-1-yl)-quinazolin-4-yl]-piperidine-1-carboxylic acid (4-morpholin-4-yl-phenyl)-amide]
4 | 6.84 | 7.68 | CCN1CCN(c2ccc3c(C4CCN(C(=O)Nc5ccc(N6CCCC6)cc5)CC4)ncnc3c2)CC1 [Compound 187, 4-[7-(4-Ethyl-piperazin-1-yl)-quinazolin-4-yl]-piperidine-1-carboxylic acid (4-pyrrolidin-1-yl-phenyl)-amide]
5 | 6.99 | 8.10 | O=C(Nc1ccc(N2CCCC2)cc1)N1CCC(c2ncnc3cc(N4CCOC4=O)ccc23)CC1 [Example 176, 4-[7-(2-Oxo-oxazolidin-3-yl)-quinazolin-4-yl]-piperidine-1-carboxylic acid (4-pyrrolidin-1-yl-phenyl)-amide]
6 | 7.57 | 7.29 | O=C(Nc1ccc(N2CCCC2)cc1)N1CCC(c2ncnc3cc(OCCN4CCOC4=O)ccc23)CC1 [Example 147, 4-{7-[2-(2-Oxo-oxazolidin-3-yl)-ethoxy]-quinazolin-4-yl}-piperidine-1-carboxylic acid (4-pyrrolidin-1-yl-phenyl)-amide]
7 | 7.60 | 7.44 | CS(=O)(=O)N1CCN(CCCOc2ccc3c(C4CCN(C(=O)Nc5ccc(N6CCCC6)cc5)CC4)ncnc3c2)CC1 [Example 164, 4-{7-[3-(4-Methanesulfonyl-piperazin-1-yl)-propoxy]-quinazolin-4-yl}-piperidine-1-carboxylic acid (4-pyrrolidin-1-yl-phenyl)-amide]
8 | 8.22 | 7.13 | CN1CCN(CCOc2ccc3c(C4CCN(C(=O)Nc5ccc(N6CCOCC6)cc5)CC4)ncnc3c2)CC1 [Example 156, 4-{7-[2-(4-Methyl-piperazin-1-yl)-ethoxy]-quinazolin-4-yl}-piperidine-1-carboxylic acid (4-morpholin-4-yl-phenyl)-amide]
9 | 7.21 | 6.71 | CN1CCC[C@H]1COc1ccc2c(C3CCN(C(=O)Nc4ccc(N5CCCC5)cc4)CC3)ncnc2c1 [Example 151, (S)-4-[7-(1-Methyl-pyrrolidin-2-ylmethoxy)-quinazolin-4-yl]-piperidine-1-carboxylic acid (4-pyrrolidin-1-yl-phenyl)-amide]
10 | 7.77 | 7.47 | O=C(Nc1ccc(N2CCCC2)cc1)N1CCC(c2ncnc3cc(N4CCCC4)ccc23)CC1 [Compound 179, 4-(7-Pyrrolidin-1-yl-quinazolin-4-yl)-piperidine-1-carboxylic acid (4-pyrrolidin-1-yl-phenyl)-amide]
11 | 6.27 | 6.61 | O=C(COc1ccc2c(C3CCN(C(=O)Nc4ccc(N5CCCC5)cc4)CC3)ncnc2c1)N1CCOCC1 [Example 172, 4-[7-(2-Morpholin-4-yl-2-oxo-ethoxy)-quinazolin-4-yl]-piperidine-1-carboxylic acid (4-pyrrolidin-1-yl-phenyl)-amide]
12 | 8.22 | 7.70 | O=C(Nc1ccc(N2CCCC2)cc1)N1CCC(c2ncnc3cc(-n4ccnc4)ccc23)CC1 [Compound 180, 4-(7-Imidazol-1-yl-quinazolin-4-yl)-piperidine-1-carboxylic acid (4-pyrrolidin-1-yl-phenyl)-amide]
13 | 7.66 | 6.40 | O=C(Nc1ccc(N2CCOCC2)cc1)N1CCC(c2ncnc3cc(OCCN4CCC[C@H]4CO)ccc23)CC1 [Example 153, (S)-4-{7-[2-(2-Hydroxymethyl-pyrrolidin-1-yl)-ethoxy]-quinazolin-4-yl}-piperidine-1-carboxylic acid (4-morpholin-4-yl-phenyl)-amide]
14 | 6.36 | 5.55 | CC(C)Oc1ccc(NC(=O)N2CCC(c3ncnc4ccc(N5CCN(C)CC5)cc34)CC2)cc1 [Example 131, 4-[6-(4-Methyl-piperazin-1-yl)-quinazolin-4-yl]-piperidine-1-carboxylic acid (4-isopropoxy-phenyl)-amide]
15 | 7.85 | 6.57 | CN(C)[C@@H]1CCN(c2ccc3c(C4CCN(C(=O)Nc5ccc(N6CCOCC6)cc5)CC4)ncnc3c2)C1 [Example 150, (R)-4-[7-(3-Dimethylamino-pyrrolidin-1-yl)-quinazolin-4-yl]-piperidine-1-carboxylic acid (4-morpholin-4-yl-phenyl)-amide]
16 | 6.41 | 7.17 | O=C(Nc1ccc(N2CCCC2)cc1)N1CCC(c2ncnc3cc(OCC4CCOCC4)ccc23)CC1 [Compound 188, 4-[7-(Tetrahydro-pyran-4-ylmethoxy)-quinazolin-4-yl]-piperidine-1-carboxylic acid (4-pyrrolidin-1-yl-phenyl)-amide]
17 | 5.95 | 6.54 | O=C(Nc1ccc(N2CCCC2)cc1)N1CCC(c2ncnc3cc(OC4CCOCC4)ccc23)CC1 [Compound 189, 4-[7-(Tetrahydro-pyran-4-yloxy)-quinazolin-4-yl]-piperidine-1-carboxylic acid (4-pyrrolidin-1-yl-phenyl)-amide]
18 | 7.38 | 6.67 | O=C(Nc1ccc(N2CCCC2)cc1)N1CCC(c2ncnc3cc(Oc4cccnc4)ccc23)CC1 [Example 174, 4-[7-(Pyridin-3-yloxy)-quinazolin-4-yl]-piperidine-1-carboxylic acid (4-pyrrolidin-1-yl-phenyl)-amide]
19 | 6.54 | 7.01 | CC(=O)N1CC(Oc2ccc3c(C4CCN(C(=O)Nc5ccc(N6CCCC6)cc5)CC4)ncnc3c2)C1 [Example 170, 4-[7-(1-Acetyl-azetidin-3-yloxy)-quinazolin-4-yl]-piperidine-1-carboxylic acid (4-pyrrolidin-1-yl-phenyl)-amide]
20 | 7.52 | 7.18 | O=C(Nc1ccc(N2CCOCC2)cc1)N1CCC(c2ncnc3cc(OCCN4CCOC4=O)ccc23)CC1 [Example 148, 4-{7-[2-(2-Oxo-oxazolidin-3-yl)-ethoxy]-quinazolin-4-yl}-piperidine-1-carboxylic acid (4-morpholin-4-yl-phenyl)-amide]
21 | 7.21 | 6.86 | COc1cc2ncnc(C3CCN(C(=O)Nc4ccc(N5CCOCC5)cc4)CC3)c2cc1OC [Example 18, 4-(6,7-Dimethoxy-quinazolin-4-yl)-piperidine-1-carboxylic acid (4-morpholin-4-yl-phenyl)-amide]
22 | 7.96 | 7.70 | CC(=O)N1CCC(COc2ccc3c(C4CCN(C(=O)Nc5ccc(N6CCCC6)cc5)CC4)ncnc3c2)CC1 [Example 163, 4-[7-(1-Acetyl-piperidin-4-ylmethoxy)-quinazolin-4-yl]-piperidine-1-carboxylic acid (4-pyrrolidin-1-yl-phenyl)-amide]
23 | 8.70 | 7.24 | O=C(Nc1ccc(N2CCOCC2)cc1)N1CCC(c2ncnc3cc(OCCCN4CCOCC4)ccc23)CC1 [Example 133, 4-[7-(3-Morpholin-4-yl-propoxy)-quinazolin-4-yl]-piperidine-1-carboxylic acid (4-morpholin-4-yl-phenyl)-amide]

Row | SMILES | pIC50 [1] | pIC50 (MV4-11 cells)
24 | COc1cc2ncnc(C3CCN(C(=O)Nc4ccc(OC5CCC5)nc4)CC3)c2cc1OC [Example 17, 4-(6,7-Dimethoxy-quinazolin-4-yl)-piperidine-1-carboxylic acid (6-cyclobutoxy-pyridin-3-yl)-amide] | 7.80 | 7.51
